{"source": "paper PMC6928743", "about": "“3’-O-Methylorobol Inhibits the Voltage-Gated Sodium Channel Nav1.7 with Anti-Itch Efficacy in A Histamine-Dependent Itch Mouse Model” (International Journal of Molecular Sciences, 2019)", "assay_type_in_all_cases": "cell-based", "key": {"[1]": {"molecular_target": "T1, Nav1.8 (Mus musculus, UniProt Q6QIY3)", "T1 construct": "gene Scn10a", "T1 sequence (Q6QIY3 whole entry)": "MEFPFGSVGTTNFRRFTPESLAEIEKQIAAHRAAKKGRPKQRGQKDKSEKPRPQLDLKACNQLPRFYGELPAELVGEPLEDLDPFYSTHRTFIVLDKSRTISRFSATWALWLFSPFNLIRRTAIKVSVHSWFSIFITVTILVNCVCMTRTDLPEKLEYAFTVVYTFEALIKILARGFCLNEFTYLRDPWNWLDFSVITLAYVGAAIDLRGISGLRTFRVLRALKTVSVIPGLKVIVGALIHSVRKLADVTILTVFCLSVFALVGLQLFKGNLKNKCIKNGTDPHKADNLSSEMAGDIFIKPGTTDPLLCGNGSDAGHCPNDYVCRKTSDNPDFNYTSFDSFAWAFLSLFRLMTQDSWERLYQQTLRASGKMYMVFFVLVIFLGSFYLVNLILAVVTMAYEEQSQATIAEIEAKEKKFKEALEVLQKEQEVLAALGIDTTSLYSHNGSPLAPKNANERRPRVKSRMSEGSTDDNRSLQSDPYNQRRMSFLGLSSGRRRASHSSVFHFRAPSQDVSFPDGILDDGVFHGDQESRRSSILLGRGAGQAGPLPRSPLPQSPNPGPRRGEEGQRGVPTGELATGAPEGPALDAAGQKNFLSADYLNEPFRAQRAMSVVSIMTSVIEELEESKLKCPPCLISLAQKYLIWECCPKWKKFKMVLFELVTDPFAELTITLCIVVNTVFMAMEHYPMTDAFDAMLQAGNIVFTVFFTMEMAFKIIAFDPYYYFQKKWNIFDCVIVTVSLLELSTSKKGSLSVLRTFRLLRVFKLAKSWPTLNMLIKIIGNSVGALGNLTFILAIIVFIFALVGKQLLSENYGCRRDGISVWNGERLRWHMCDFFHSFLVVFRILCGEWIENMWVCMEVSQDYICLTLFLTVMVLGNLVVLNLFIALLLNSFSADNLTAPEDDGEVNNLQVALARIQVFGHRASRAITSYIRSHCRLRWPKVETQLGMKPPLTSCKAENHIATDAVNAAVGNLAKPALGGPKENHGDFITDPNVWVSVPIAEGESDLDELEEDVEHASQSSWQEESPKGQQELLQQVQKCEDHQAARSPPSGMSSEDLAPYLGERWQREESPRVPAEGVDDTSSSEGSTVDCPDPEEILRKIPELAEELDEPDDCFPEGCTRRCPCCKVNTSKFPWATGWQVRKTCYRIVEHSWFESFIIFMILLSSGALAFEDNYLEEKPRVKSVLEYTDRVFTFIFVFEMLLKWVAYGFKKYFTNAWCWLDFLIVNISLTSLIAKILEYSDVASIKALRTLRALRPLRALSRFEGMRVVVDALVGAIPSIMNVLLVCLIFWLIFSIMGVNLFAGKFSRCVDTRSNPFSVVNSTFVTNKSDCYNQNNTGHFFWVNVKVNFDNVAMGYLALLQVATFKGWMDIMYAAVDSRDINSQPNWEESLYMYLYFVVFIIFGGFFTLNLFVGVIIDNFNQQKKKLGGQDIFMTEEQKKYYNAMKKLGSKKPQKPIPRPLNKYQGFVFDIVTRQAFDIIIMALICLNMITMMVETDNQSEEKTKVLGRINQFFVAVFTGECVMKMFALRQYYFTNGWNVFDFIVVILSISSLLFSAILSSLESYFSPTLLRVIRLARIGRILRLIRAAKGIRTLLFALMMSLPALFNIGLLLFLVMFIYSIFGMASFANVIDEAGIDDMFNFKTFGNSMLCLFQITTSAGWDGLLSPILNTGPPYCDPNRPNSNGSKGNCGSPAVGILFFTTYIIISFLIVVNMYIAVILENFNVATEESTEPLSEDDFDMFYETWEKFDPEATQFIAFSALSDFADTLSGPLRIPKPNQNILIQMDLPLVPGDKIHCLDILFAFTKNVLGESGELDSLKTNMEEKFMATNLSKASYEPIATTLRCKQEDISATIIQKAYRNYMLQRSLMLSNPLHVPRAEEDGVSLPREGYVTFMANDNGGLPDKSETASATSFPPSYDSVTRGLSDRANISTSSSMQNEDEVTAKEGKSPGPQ", "test": "whole-cell voltage-clamp in ND7/[…] cells transiently expressing mNav1.[…], single concentration […]"}, "[2]": {"molecular_target": "T2, Nav1.6 (Homo sapiens, UniProt Q9UQD0)", "T2 construct": "gene SCN8A", "T2 sequence (Q9UQD0 whole entry)": "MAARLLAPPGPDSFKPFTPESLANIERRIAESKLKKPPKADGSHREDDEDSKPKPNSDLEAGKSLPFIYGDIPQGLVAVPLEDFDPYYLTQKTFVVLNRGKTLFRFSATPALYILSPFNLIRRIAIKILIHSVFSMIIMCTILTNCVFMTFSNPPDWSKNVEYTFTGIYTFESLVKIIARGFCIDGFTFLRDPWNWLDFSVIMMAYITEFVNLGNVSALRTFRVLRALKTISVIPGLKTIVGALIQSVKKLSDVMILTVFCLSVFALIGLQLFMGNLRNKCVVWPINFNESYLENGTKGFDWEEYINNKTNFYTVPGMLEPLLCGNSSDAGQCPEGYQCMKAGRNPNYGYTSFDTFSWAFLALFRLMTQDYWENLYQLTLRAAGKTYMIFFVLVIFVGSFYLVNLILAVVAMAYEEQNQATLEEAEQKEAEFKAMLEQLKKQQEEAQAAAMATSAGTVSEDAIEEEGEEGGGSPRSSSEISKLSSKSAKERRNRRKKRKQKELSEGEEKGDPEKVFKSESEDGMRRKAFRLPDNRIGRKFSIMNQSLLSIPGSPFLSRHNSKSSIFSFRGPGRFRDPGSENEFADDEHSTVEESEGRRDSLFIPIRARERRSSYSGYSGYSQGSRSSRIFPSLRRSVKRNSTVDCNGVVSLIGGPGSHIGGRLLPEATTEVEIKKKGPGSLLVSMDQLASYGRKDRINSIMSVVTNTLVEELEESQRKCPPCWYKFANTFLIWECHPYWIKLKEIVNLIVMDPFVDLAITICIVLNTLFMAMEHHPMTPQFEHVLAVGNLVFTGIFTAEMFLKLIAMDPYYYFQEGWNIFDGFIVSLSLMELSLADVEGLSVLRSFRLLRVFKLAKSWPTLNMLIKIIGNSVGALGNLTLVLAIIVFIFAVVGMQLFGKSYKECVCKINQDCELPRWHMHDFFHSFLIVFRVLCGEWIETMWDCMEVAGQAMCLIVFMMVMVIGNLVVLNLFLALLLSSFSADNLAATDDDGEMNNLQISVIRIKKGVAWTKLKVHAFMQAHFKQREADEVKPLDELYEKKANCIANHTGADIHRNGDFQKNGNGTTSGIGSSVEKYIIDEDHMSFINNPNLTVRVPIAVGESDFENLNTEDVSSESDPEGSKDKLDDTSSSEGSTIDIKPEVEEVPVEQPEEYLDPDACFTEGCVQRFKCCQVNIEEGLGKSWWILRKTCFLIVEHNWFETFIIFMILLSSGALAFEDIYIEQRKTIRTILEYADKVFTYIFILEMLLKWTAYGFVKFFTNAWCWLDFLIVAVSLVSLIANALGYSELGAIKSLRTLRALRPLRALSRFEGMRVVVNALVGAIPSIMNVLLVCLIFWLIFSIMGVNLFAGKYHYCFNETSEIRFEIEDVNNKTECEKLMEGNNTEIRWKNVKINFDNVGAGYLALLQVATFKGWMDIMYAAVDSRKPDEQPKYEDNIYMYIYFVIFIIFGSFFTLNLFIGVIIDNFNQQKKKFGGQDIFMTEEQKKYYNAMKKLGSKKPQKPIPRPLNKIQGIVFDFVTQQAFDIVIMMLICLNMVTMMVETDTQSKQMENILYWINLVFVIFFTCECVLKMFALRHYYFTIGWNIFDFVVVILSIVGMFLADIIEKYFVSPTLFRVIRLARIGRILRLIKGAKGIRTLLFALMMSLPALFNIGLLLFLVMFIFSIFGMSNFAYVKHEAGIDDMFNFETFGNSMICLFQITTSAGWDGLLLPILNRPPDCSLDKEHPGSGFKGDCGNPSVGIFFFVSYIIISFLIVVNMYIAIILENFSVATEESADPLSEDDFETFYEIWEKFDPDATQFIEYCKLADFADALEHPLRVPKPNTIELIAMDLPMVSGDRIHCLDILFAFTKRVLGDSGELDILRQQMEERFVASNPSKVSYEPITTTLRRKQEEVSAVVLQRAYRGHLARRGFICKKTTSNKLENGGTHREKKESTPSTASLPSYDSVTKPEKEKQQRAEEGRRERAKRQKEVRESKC", "test": "whole-cell voltage-clamp in CHO cells stably expressing hNav1.[…], single concentration […]"}, "[3]": {"molecular_target": "T3, Nav1.7 (Homo sapiens, UniProt Q15858)", "T3 construct": "gene SCN9A", "test": "whole-cell voltage-clamp in CHO cells stably expressing hNav1.[…]"}}, "data": [{"smiles": "COc1cc(-c2coc3cc(O)cc(O)c3c2=O)ccc1O", "note": "[3’-O-methylorobol]", "values": [{"measurement": "inhibition at 10 µM", "setting": "[1]", "value": 23, "unit": "%"}, {"measurement": "inhibition at 10 µM", "setting": "[2]", "value": 39, "unit": "%"}, {"measurement": "IC50", "setting": "[3]", "value": 3.46, "unit": "µM"}]}]}
